Data from PubChem BioAssay AID1259420 (Broad Institute, 2018).
“And” between values parts separate entries of the source, which are not always exact repeats. Equal entries are not always repeated. Inconclusive results are not listed. The source made the active and inactive calls. How the calls were made is not given here.

These compounds were tested on Toxoplasma gondii growth in host cells, no IFN-gamma (assay: compound activity on host-cell Toxoplasma growth – dose response (AID 1259420);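 further: host cells were HeLa; final incubation lasted 72 hours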).
In the case of `N#Cc1cccc(-c2ccc(C3[C@@H]4CN(Cc5ccccc5)C[C@H]3N4)cc2)c1` (stereo partly drawn), the AC50 is reported as 13.1 µM. `CC(C)(C)OC(=O)Nc1cc(-c2cn[nH]c2C2CCCN(C(=O)OC(C)(C)C)C2)ccn1` (stereo not drawn) was tested, and the AC50 was > 20 µM (inactive). `COc1ccc(-c2ccc3c(c2)[C@H]2[C@H](CCN2C(=O)c2cccc(F)c2)[C@@H](CO)N3)cc1` was tested, and the AC50 was 10.6 µM. In the case of `Cc1ccccc1S(=O)(=O)N1CC[C@@H]2[C@H]1c1cc(-c3cccc(F)c3)ccc1N(C)[C@H]2CO`, the AC50 is reported as 10.7 µM. `CCOCCCNC(=O)c1ccc2ccc(N3CCN(CC4CC4)CC3)n2c1` was tested, and the AC50 was > 39 µM (inactive). `O=C(Nc1ccc(F)cc1)N1CC(=O)N2[C@H](C1)[C@H](c1ccc(-c3cccc(F)c3)cc1)[C@@H]2CO` gave an AC50 of 15 µM. Work on `C/C=C/c1ccc(C2[C@H]3CNC[C@@H]2N3Cc2cc(F)ccc2F)cc1` (stereo partly drawn) yielded an AC50 of 11.4 µM. In the case of `COc1ccccc1NC(=O)N1C[C@H](O)COC[C@@H]2O[C@@H](CC(=O)N3CCC(Cc4ccccc4)CC3)CC[C@H]21`, the AC50 is reported as > 39 µM (inactive). In the case of `CC1CCCCN1CCNc1nc(-c2ccc(Cl)cc2)nc2ccccc12` (stereo not drawn), the AC50 is reported as 11.8 µM. `CC(C)(C)CC(C)(C)c1ccc(OCCOCC[N+](C)(C)Cc2ccccc2)cc1` gave an AC50 of 14.1 µM. In the case of `CCCC#Cc1ccc([C@@H]2[C@H]3CN(C(=O)Nc4cccc(F)c4)CC(=O)N3[C@H]2CO)cc1`, the AC50 is reported as 29.4 µM and 14.9 µM. `CCCNC(=O)N1[C@H](CO)[C@@H](c2ccc(-c3ccccc3F)cc2)[C@@H]1C#N` was tested, and the AC50 was > 39 µM (inactive). Compound `O=C(c1ccc(F)cc1)N1CC(=O)N2[C@H](C1)[C@H](c1ccc(C#CCC3CCCC3)cc1)[C@@H]2CO` has an AC50 of 16.9 µM. Work on `N#Cc1cccc(-c2ccc3c(c2)[C@H]2[C@H](CCN2C(=O)c2ccccc2F)[C@@H](CO)N3)c1` yielded an AC50 of 15.1 µM. `CC[C@]1(O)C[C@@H]2CN(CCc3c([nH]c4ccccc34)[C@@](C(=O)OC)(c3cc4c(cc3OC)N(C)[C@H]3[C@@](O)(C(=O)OC)[C@H](OC(C)=O)[C@]5(CC)C=CCN6CC[C@]43[C@@H]65)C2)C1` gave an AC50 of under 0.16 µM. In the case of `O=C(O)CC1CCC(c2ccc(-c3ccc(Nc4ccc(C(F)(F)F)nc4)cn3)cc2)CC1` (stereo not drawn), the AC50 is reported as 17.2 µM. For `Cc1nc2c(cnn2-c2ccccc2)c(=O)n1-c1cccc2ccccc12`, the AC50 was 10.9 µM. In the case of `CCc1ccccc1S(=O)(=O)N1CCc2nc(-c3ccc(OC)cc3)sc2C1`, the AC50 is reported as 4.35 µM. With `Cc1ccc(S(=O)(=O)N2CC[C@H]3[C@@H](CO)N(C)c4ccc(-c5ccccc5F)cc4[C@H]32)cc1` the AC50 was > 20 µM (inactive). With `O=C(NC1CCCC1)N1CCCCN2[C@H](CO)[C@H](c3ccc(-c4cccnc4)cc3)[C@H]2C1` the AC50 was 18.2 µM. With `Cc1cc(C(=O)Nc2ccc3c(c2)C(=O)N(C)[C@@H]2CC[C@@H](CC(=O)NCc4ccc(-c5ccccc5)cc4)O[C@@H]2CO3)no1` the AC50 was 17.9 µM. `COc1ccccc1S(=O)(=O)N1CC[C@@H]2[C@@H](CO)Nc3ccc(-c4ccc(C#N)cc4)cc3[C@@H]21` was tested, and the AC50 was 19.8 µM. Compound `C/C=C/c1ccc([C@H]2[C@H](CO)N3CCCCN(S(=O)(=O)c4ccc(OC)cc4)C[C@@H]23)cc1` has an AC50 of 19.1 µM. In the case of `O=C(Cc1ccccc1)N1CC(=O)N2[C@H](C1)[C@@H](c1ccc(-c3ccc(F)cc3)cc1)[C@@H]2CO`, the AC50 is reported as 24.7 µM. Work on `CC(C)CC#Cc1ccc([C@H]2[C@@H](CO)N3CCCCN(C(=O)Nc4ccccc4)C[C@@H]23)cc1` yielded an AC50 of 15.5 µM. For `COc1cccc(NC(=O)N2CC(=O)N3[C@H](C2)[C@@H](c2ccc(C#CCC4CCCC4)cc2)[C@@H]3CO)c1`, the AC50 was 15.8 µM and 22.4 µM. `CN1[C@@H]2c3ccc(/C=C/c4ccccc4)c(=O)n3C[C@H]1[C@H](CO)[C@H]2C(=O)NC1Cc2ccccc2C1` was tested, and the AC50 was > 39 µM (inactive). In the case of `CC(=O)O.CC(=O)O.[Cl][Pt+2][Cl].[NH-]C1CCCCC1.[NH2-]`, the AC50 is reported as 19.4 µM. With `CN1C(=O)c2cc(NC(=O)Cc3cccs3)ccc2OC[C@H]2O[C@@H](CC(=O)NCc3ccc(-c4ccccc4)cc3)CC[C@@H]21` the AC50 was 20 µM and > 39 µM (inactive). `O=C(CC1CC1)N1CC[C@@H]2[C@@H](CO)Nc3ccc(-c4ccc(F)cc4)cc3[C@@H]21` showed an AC50 of 20.2 µM. With `CN1C(=O)CC2C1CCN2S(=O)(=O)Cc1ccccc1` (stereo not drawn) the AC50 was > 39 µM (inactive). For `COc1cccc(-c2ccc(C3[C@H]4CNC[C@@H]3N4Cc3nccs3)cc2)c1` (stereo partly drawn), the AC50 was 18.7 µM. In the case of `Cc1cccc(-c2ccc([C@H]3[C@@H](CO)N4CCCCN(S(=O)(=O)c5ccccc5F)C[C@H]34)cc2)c1`, the AC50 is reported as 16.4 µM and 19.5 µM. `COc1ccc(-c2nc(Nc3ccc(CN4CCCCC4)cc3)c3ccccc3n2)cc1` showed an AC50 of 18.5 µM. `COc1ccc(-c2nc(Nc3ccc(CN4CCC(C)CC4)cc3)c3ccccc3n2)cc1` was tested, and the AC50 was 12.6 µM. With `COc1ccccc1-c1ccc(C2[C@@H]3CN(S(=O)(=O)c4ccc(C)cc4)C[C@H]2N3)cc1` (stereo partly drawn) the AC50 was 15.2 µM and > 20 µM (inactive). `CC(C)NC(=O)N1CC(=O)N2[C@@H](CO)[C@H](c3ccc(/C=C/c4ccccc4)cc3)[C@@H]2C1` was tested, and the AC50 was > 39 µM (inactive). `CCn1c(C2CCCN(C(=O)CCN3CCCCCC3=O)C2)nn(C)c1=O` (stereo not drawn) was tested, and the AC50 was 29.4 µM. `N#Cc1cccc(-c2ccc(C3[C@@H]4CN(C(=O)c5ccc6c(c5)OCO6)C[C@H]3N4)cc2)c1` (stereo partly drawn) was tested, and the AC50 was > 39 µM (inactive). `CCc1cnc(N2[C@H](C#N)[C@H](c3ccc(C#Cc4ccccc4F)cc3)[C@@H]2CO)s1` gave an AC50 of 11.3 µM. `COc1ccccc1NC(=O)N1C[C@@H]2N[C@H](C1)C2c1ccc(/C=C/c2ccccc2)cc1` (stereo partly drawn) was tested, and the AC50 was 6.68 µM. Compound `COc1ccc(-c2ccc3c(c2)[C@@H]2[C@@H](CCN2C(=O)c2cccc(F)c2)[C@H](CO)N3)cc1` has an AC50 of 11.3 µM. `CCc1ccccc1S(=O)(=O)N1CCc2nc(-c3ccccc3)sc2C1` was tested, and the AC50 was 3.94 µM and 3.08 µM.
